Source: ChEMBL document CHEMBL1142913, “Novel synthesis of [1]-benzothiepino[5,4-b]pyridine-3-carbonitriles and their anti-inflammatory properties” (Bioorg Med Chem, 2007)

Experiments:
Rattus norvegicus [1] = test: Antiinflammatory activity in Wistar Albino rat assessed as inhibition of carrageenan-induced paw oedema at 50 mg/kg, ip after 1 hr; format: functional; conditions: route intraperitoneal
Rattus norvegicus [2] = test: Antiinflammatory activity in Wistar Albino rat assessed as inhibition of carrageenan-induced paw oedema at 50 mg/kg, ip after 2 hrs; format: functional; conditions: route intraperitoneal
Rattus norvegicus [3] = test: Antiinflammatory activity in Wistar Albino rat assessed as inhibition of carrageenan-induced paw oedema at 50 mg/kg, ip after 3 hrs; format: functional; conditions: route intraperitoneal
Rattus norvegicus [4] = test: Antiinflammatory activity in Wistar Albino rat assessed as inhibition of carrageenan-induced paw oedema at 50 mg/kg, ip after 4 hrs; format: functional; conditions: route intraperitoneal
Rattus norvegicus [5] = test: Antiinflammatory activity against carrageenan-induced paw oedema in Wistar Albino rat assessed as mean swelling paw volume at 50 mg/kg, ip after 1 hr; format: functional; conditions: route intraperitoneal
Rattus norvegicus [6] = test: Antiinflammatory activity against carrageenan-induced paw oedema in Wistar Albino rat assessed as mean swelling paw volume at 50 mg/kg, ip after 2 hrs; format: functional; conditions: route intraperitoneal
Rattus norvegicus [7] = test: Antiinflammatory activity against carrageenan-induced paw oedema in Wistar Albino rat assessed as mean swelling paw volume at 50 mg/kg, ip after 3 hrs; format: functional; conditions: route intraperitoneal
Rattus norvegicus [8] = test: Antiinflammatory activity against carrageenan-induced paw oedema in Wistar Albino rat assessed as mean swelling paw volume at 50 mg/kg, ip after 4 hrs; format: functional; conditions: route intraperitoneal
Mus musculus = test: Toxicity in intraperitoneally dosed Albino mouse after 24 hrs; format: organism-based; conditions: in vivo, ip
Rattus norvegicus [9] = test: Antiinflammatory activity in Wistar Albino rat assessed as inhibition of carrageenan-induced paw oedema at 5 mg/kg, ip after 1 hr; format: functional; conditions: route intraperitoneal
Rattus norvegicus [10] = test: Antiinflammatory activity in Wistar Albino rat assessed as inhibition of carrageenan-induced paw oedema at 5 mg/kg, ip after 2 hrs; format: functional; conditions: route intraperitoneal
Rattus norvegicus [11] = test: Antiinflammatory activity in Wistar Albino rat assessed as inhibition of carrageenan-induced paw oedema at 5 mg/kg, ip after 3 hrs; format: functional; conditions: route intraperitoneal
Rattus norvegicus [12] = test: Antiinflammatory activity in Wistar Albino rat assessed as inhibition of carrageenan-induced paw oedema at 5 mg/kg, ip after 4 hrs; format: functional; conditions: route intraperitoneal
Rattus norvegicus [13] = test: Antiinflammatory activity against carrageenan-induced paw oedema in Wistar Albino rat assessed as mean swelling paw volume at 5 mg/kg, ip after 1 hr; format: functional; conditions: route intraperitoneal
Rattus norvegicus [14] = test: Antiinflammatory activity against carrageenan-induced paw oedema in Wistar Albino rat assessed as mean swelling paw volume at 5 mg/kg, ip after 2 hrs; format: functional; conditions: route intraperitoneal
Rattus norvegicus [15] = test: Antiinflammatory activity against carrageenan-induced paw oedema in Wistar Albino rat assessed as mean swelling paw volume at 5 mg/kg, ip after 3 hrs; format: functional; conditions: route intraperitoneal
Rattus norvegicus [16] = test: Antiinflammatory activity against carrageenan-induced paw oedema in Wistar Albino rat assessed as mean swelling paw volume at 5 mg/kg, ip after 4 hrs; format: functional; conditions: route intraperitoneal

SMILES | inhibition in vivo at 50 mg/kg (Rattus norvegicus [1]) | inhibition in vivo at 50 mg/kg (Rattus norvegicus [2]) | inhibition in vivo at 50 mg/kg (Rattus norvegicus [3]) | inhibition in vivo at 50 mg/kg (Rattus norvegicus [4]) | Activity (Rattus norvegicus [5]) | Activity (Rattus norvegicus [6]) | Activity (Rattus norvegicus [7]) | Activity (Rattus norvegicus [8]) | Activity (Mus musculus) | inhibition in vivo at 5 mg/kg (Rattus norvegicus [9]) | inhibition in vivo at 5 mg/kg (Rattus norvegicus [10]) | inhibition in vivo at 5 mg/kg (Rattus norvegicus [11]) | inhibition in vivo at 5 mg/kg (Rattus norvegicus [12]) | Activity (Rattus norvegicus [13]) | Activity (Rattus norvegicus [14]) | Activity (Rattus norvegicus [15]) | Activity (Rattus norvegicus [16])
C1CCNCC1.COc1ccc(-c2c(C#N)c(S)[nH]c(=S)c2C#N)cc1.O | 9.4% | 47% | 57% | 58.9% | 0.548 mL | 0.594 mL | 0.588 mL | 0.658 mL |  |  |  |  |  |  |  |  | 
COc1nc2c(c(-c3ccccc3)c1C#N)CCSc1ccccc1-2 | 54% | 61% | 59.2% | 80.9% | 0.278 mL | 0.437 mL | 0.558 mL | 0.305 mL |  |  |  |  |  |  |  |  | 
N#Cc1c(-c2ccc(Br)cc2)c2c([nH]c1=S)-c1ccccc1SCC2 | 38% | 56.7% | 63.8% | 69.7% | 0.375 mL | 0.485 mL | 0.495 mL | 0.485 mL |  |  |  |  |  |  |  |  | 
CCOc1nc2c(c(-c3ccc(OC)cc3)c1C#N)CCSc1ccccc1-2 | 62% | 79.5% | 90.6% | 87.5% | 0.23 mL | 0.23 mL | 0.128 mL | 0.2 mL | Non-toxic |  |  |  |  |  |  |  | 
COc1nc2c(c(-c3ccco3)c1C#N)CCSc1ccccc1-2 | 79.5% | 51.1% | 58.2% | 68.3% | 0.124 mL | 0.548 mL | 0.572 mL | 0.508 mL |  |  |  |  |  |  |  |  | 
CCOc1nc2c(c(-c3ccc(Cl)cc3)c1C#N)CCSc1ccccc1-2 | 81.3% | 87.7% | 88.5% | 86.8% | 0.113 mL | 0.138 mL | 0.158 mL | 0.212 mL | Non-toxic |  |  |  |  |  |  |  | 
COc1ccc2c(c1)c(CC(=O)O)c(C)n2C(=O)c1ccc(Cl)cc1 [INDOMETHACIN] |  |  |  |  |  |  |  |  |  | 71.1% | 82.6% | 66.4% | 82.6% | 0.175 mL | 0.195 mL | 0.46 mL | 0.278 mL
COc1ccc(-c2c3c([nH]c(=S)c2C#N)-c2ccccc2SCC3)cc1 | 54.5% | 68.3% | 63.5% | 56.3% | 0.275 mL | 0.355 mL | 0.5 mL | 0.7 mL |  |  |  |  |  |  |  |  | 
COc1ccc(-c2c(C#N)c(OC)nc3c2CCSc2ccccc2-3)cc1 | 58.7% | 81.9% | 87% | 85.1% | 0.25 mL | 0.203 mL | 0.178 mL | 0.238 mL | Non-toxic |  |  |  |  |  |  |  | 
COc1nc2c(c(-c3ccc(Cl)cc3)c1C#N)CCSc1ccccc1-2 | 63.1% | 74.7% | 79.8% | 75.3% | 0.223 mL | 0.283 mL | 0.277 mL | 0.396 mL |  |  |  |  |  |  |  |  | 
COc1nc2c(c(-c3cccs3)c1C#N)CCSc1ccccc1-2 | 55.4% | 60.1% | 56.1% | 56.6% | 0.27 mL | 0.447 mL | 0.6 mL | 0.695 mL |  |  |  |  |  |  |  |  | 
C1COCCN1.COc1ccc(-c2c(C#N)c(S)[nH]c(=S)c2C#N)cc1.O | 30.6% | 55.5% | 67.8% | 66.5% | 0.42 mL | 0.498 mL | 0.44 mL | 0.536 mL |  |  |  |  |  |  |  |  | 
